What all share (type): cell-based
Series [1] is described as follows: Cytotoxicity in PHH natural infection assay (Cell Counting Kit-8). Particulars: HBV-infected primary human hepatocytes, CCK8. On the procedure: (§1) Detailed procedures regarding primary human hepatocyte (PHH) HBV natural infection assay are described as below. One tube of frozen PHH (10 million cells) is thawed in 37° C. water bath and then transferred to 20 mL of PHH thawing medium (Sigma, InVitroGRO HT Medium, Cat. S03319) with gently mixing. The cells were then centrifuged at […] for 5 min, the supernatant was discarded and the tube was refilled with 25 mL of PHH plating medium (Sigma, InVitroGRO CP Medium, Cat. 503317). The tube was shaken very gently to re-suspend all cells. 50 μl of cells were transferred to each well 384-well collagen I coated plate with appropriate liquid handling equipment, e.g. Integra VIAFLO384 or Agilent Bravo. The cells were then cultured for 24 hours in a cell incubator. For HBV infection, after PHH attachment on the culture plate, the plating medium was removed and replenished with PHH culture medium containing HBV virus. The PHH culture medium was prepared with Dulbecco's Modified Eagle Medium (DMEM)/F12 (1:1 in volume ratio) containing 10% fetal bovine serum (Gibco, Cat. 10099141), […] (Gibco, Cat. PHG03I1L), 20 ng/mL dexamethasone (Sigma, Cat. D4902-100 mg), 250 ng/mL human recombinant insulin (Gibco, Cat. 41400045) and 100 U/mL penicillin. HBV virus at 200 genome equivalent (GE) per cell with 4% PEG8000 (Sigma, Cat. P1458) containing culture medium were added to the PHH culture medium for infection. The cells were then cultured for 24 hours in cell incubator. Then the cell culture supernatant was removed. The HBV-infected PHH were cultured with sandwich culture method with PHH culture medium containing 1% DMSO and 0.25 mg/mL matrix gel for 72 hours. The supernatant was then refreshed with PHH culture medium containing different concentrations of testing compounds for two times with 72-hour interval. At the end of treatment, the supernatant was collected for viral markers measurements, including HBsAg, HBeAg, HBV DNA and cytotoxicity. HBsAg and HBeAg were detected using alphalisa method using their specific antibodies. For HBV DNA detection, HBV DNA Quantitative Fluorescence Diagnostic Kit (Sansure Biotech Inc.) was used following the manufacture's protocol. Cytotoxicity was determined using Cell Counting Kit-8 (CCK8, Dojindo Molecular Technologies, Inc.).
(Tetrazolium dyes change colour on reduction, which living cells bring about.)

Another series deals with HBeAg. The experiment in a line: PHH HBV natural infection assay, HBeAg (alphalisa). Particulars: Hepatitis B virus, Hepatocyte, 72 h, read-out: HbeAg IC50. On the procedure:
as §1
(§2) The compounds of the present invention were tested for their capacity to inhibit HBsAg and HBeAg as described herein.
For orientation: In Alpha technology, singlet oxygen from a donor bead excites a nearby acceptor bead.

Another series has as its system HBsAg. The experiment in a line: PHH HBV natural infection assay, HBsAg (alphalisa). As to conditions: Hepatitis B virus, Hepatocyte, 72 h, read-out: HBsAg IC50. On the procedure:
as §1, §2

In general, CC50 refers to the concentration at which the toxic effect on the cells reaches its halfway point. Low readings indicate harm at low concentration, high ones better tolerance by the cells. As a reminder, the IC50 is the concentration that inhibits the measured activity by half.

In series [1], `O=C(NC12CC(c3nc4cc(Cl)ccc4o3)(C1)C2)c1cc(Cl)ccc1Cl` [Example 28, 2,5-dichloro-N-[3-(5-chloro-1,3-benzoxazol-2-yl)-1-bicyclo[1.1.1]pentanyl]benzamide] returned a CC50 at 144 h above 100 µM. The values for the IC50 with HBeAg and in the series with HBsAg were 10.1 µM and 9.97 µM, respectively.

In turn, `CS(=O)(=O)c1ccc(C(=O)NC23CC(c4nc5cc(Cl)ccc5o4)(C2)C3)s1` [Example 9, N-[3-(5-chloro-1,3-benzoxazol-2-yl)-1-bicyclo[1.1.1]pentanyl]-5-methylsulfonyl-thiophene-2-carboxamide] showed a CC50 at 144 h in series [1] above 100 µM. Further, the figures for the IC50 in the series on HBeAg and with HBsAg were 5.37 µM and 9.64 µM, respectively.

With `CS(=O)(=O)Cc1ccc(C(=O)NC23CC(c4nc5cc(Cl)cnc5o4)(C2)C3)o1` [Example 41, N-[3-(6-chlorooxazolo[5,4-b]pyridin-2-yl)-1-bicyclo[1.1.1]pentanyl]-5-(methylsulfonylmethyl)furan-2-carboxamide], the cytotoxic concentration (CC50) at 144 h in series [1] was above 100 µM. The IC50 with HBeAg came to 6.21 µM; in the series on HBsAg, 5.7 µM.

For `CS(=N)(=O)c1ccc(C(=O)NC23CC(c4nc5ccc(Cl)cc5o4)(C2)C3)o1` (stereo not drawn) [Example 35, N-[3-(6-chloro-1,3-benzoxazol-2-yl)-1-bicyclo[1.1.1]pentanyl]-5-(methylsulfonimidoyl)furan-2-carboxamide], the CC50 at 144 h in series [1] was above 100 µM. The IC50 is 3.51 µM in the series on HBeAg and 4.29 µM with HBsAg.

Compound `O=C(NC12CC(c3nc4cc(Cl)ccc4o3)(C1)C2)c1ccc([S+]([O-])CC2CC2)o1` (stereo not drawn) [Example 6, N-[3-(5-chloro-1,3-benzoxazol-2-yl)-1-bicyclo[1.1.1]pentanyl]-5-(cyclopropylmethylsulfinyl)furan-2-carboxamide] yielded a CC50 at 144 h in series [1] above 100 µM. Besides, the IC50 with HBeAg turned out to be 1.37 µM; in the series on HBsAg, 2.02 µM.

In series [1], `C[S@@+]([O-])c1ccc(C(=O)NC23CC(c4nc5cc(Cl)ccc5o4)(C2)C3)o1` [Example 2-b, N-[3-(5-chloro-1,3-benzoxazol-2-yl)-1-bicyclo[1.1.1]pentanyl]-5-[(R)-methylsulfinyl]furan-2-carboxamide] yielded a CC50 at 144 h above 100 µM. In addition, the values for the IC50 in the series with HBeAg and with HBsAg were 1.89 µM and 3.64 µM, respectively.

On to `C[S+]([O-])c1ccc(C(=O)NC23CC(c4nc5cc(Cl)ccc5o4)(C2)C3)o1` (stereo not drawn) [Example 2, N-[3-(5-chloro-1,3-benzoxazol-2-yl)-1-bicyclo[1.1.1]pentanyl]-5-methylsulfinyl-furan-2-carboxamide], for which the CC50 at 144 h in series [1] was above 100 µM. Also, the IC50 in the series with HBeAg was 2.14 µM; with HBsAg it was 6.45 µM.

On to `CSc1cccc(C(=O)NC23CC(c4nc5cc(Cl)ccc5o4)(C2)C3)c1` [Example 21, N-[3-(5-chloro-1,3-benzoxazol-2-yl)-1-bicyclo[1.1.1]pentanyl]-3-methylsulfanyl-benzamide], for which the CC50 at 144 h in series [1] was above 100 µM. Moreover, the IC50 came to 1.87 µM with HBeAg and 2.6 µM in the series on HBsAg.

`CS(=O)(=O)c1ccc(C(=O)NC23CC(c4nc5ccc(F)cc5o4)(C2)C3)o1` [Example 45, N-[3-(6-fluoro-1,3-benzoxazol-2-yl)-1-bicyclo[1.1.1]pentanyl]-5-methylsulfonyl-furan-2-carboxamide] returned a CC50 at 144 h in series [1] above 100 µM. The results for the IC50 in the series with HBeAg and in the series with HBsAg were 4.48 µM and 8.63 µM, respectively.

`O=C(CN1CCCCS1(=O)=O)NC12CCC(c3nc4cc(Cl)ccc4o3)(CC1)CC2` [Example 55, N-[4-(5-chloro-1,3-benzoxazol-2-yl)-1-bicyclo[2.2.2]octanyl]-2-(1,1-dioxothiazinan-2-yl)acetamide] yielded a CC50 at 144 h in series [1] above 100 µM. Moreover, the results for the half-maximal inhibitory concentration (IC50) in the series on HBeAg and in the series on HBsAg were 0.888 µM and 2.06 µM, respectively.

In the case of `O=C(NC12CC(c3nc4cc(Cl)ccc4o3)(C1)C2)c1ccc(S(=O)(=O)C2CC2)o1` [Example 5, N-[3-(5-chloro-1,3-benzoxazol-2-yl)-1-bicyclo[1.1.1]pentanyl]-5-cyclopropylsulfonyl-furan-2-carboxamide], the CC50 at 144 h in series [1] is above 100 µM. Besides, the figures for the IC50 in the series on HBeAg and in the series on HBsAg were 0.75 µM and 0.688 µM, respectively.
